Test results reported in patent US20230183193A1, “4-DIFLUOROMETHYL BENZOYL AMIDES WITH HERBICIDAL ACTION” (BAYER CROPSCIENCE AKTIENGESELLSCHAFT, priority 2017, published 2023).

Legend:
Type in all cases: in vivo
[1] = tested on: Viola tricolor; experiment: Pre-emergence herbicidal action, VIOTR; conditions: dosage 320 g/ha, scored visually after 3 weeks vs untreated controls
How it was run: (§1)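 Percent herbicidal activity rated by eye 3 weeks after pre-emergence soil-surface application, compared with untreated pots. Seeds sat under sandy loam; sprays carried 0.2% wetting agent.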

[2] = tested on: Avena fatua; experiment: Pre-emergence herbicidal action, AVEFA; conditions: dosage 320 g/ha, scored visually after 3 weeks vs untreated controls
How it was run: as §1

[3] = tested on: Alopecurus myosuroides; experiment: Pre-emergence herbicidal action, ALOMY; conditions: dosage 320 g/ha, scored visually after 3 weeks vs untreated controls
How it was run: as §1

[4] = tested on: Viola tricolor; experiment: Post-emergence herbicidal action, VIOTR; conditions: 80 g/ha, Table D
How it was run: (§2)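 Greenhouse-grown plants were sprayed at the one-leaf stage, 2–3 weeks after sowing. Damage was scored visually after about 3 weeks against untreated controls, as % action (100% = dead, 0% = like control).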

[5] = tested on: Alopecurus myosuroides; experiment: Post-emergence herbicidal action, ALOMY; conditions: 80 g/ha, Table C
How it was run: as §2

[6] = tested on: Setaria viridis; experiment: Post-emergence herbicidal action, SETVI; conditions: 80 g/ha, Table C
How it was run: as §2

[7] = tested on: Stellaria media; experiment: Pre-emergence herbicidal action, STEME; conditions: dosage 320 g/ha, scored visually after 3 weeks vs untreated controls
How it was run: as §1

[8] = tested on: ECHCG; experiment: Post-emergence herbicidal action, ECHCG; conditions: 80 g/ha, Table C
How it was run: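 Weed and crop plants grown in sandy loam in the greenhouse, treated at the one-leaf stage 2–3 weeks after sowing. Damage scored visually after about 3 weeks vs untreated controls (0% = control, 100% = dead).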

[9] = tested on: Avena fatua; experiment: Post-emergence herbicidal action, AVEFA; conditions: 80 g/ha, Table C
How it was run: as §2

[10] = tested on: Stellaria media; experiment: Post-emergence herbicidal action, STEME; conditions: 80 g/ha, Table D
How it was run: as §2

[11] = tested on: Abutilon theophrasti; experiment: Pre-emergence herbicidal action, ABUTH; conditions: dosage 320 g/ha, scored visually after 3 weeks vs untreated controls
How it was run: as §1

[12] = tested on: Abutilon theophrasti; experiment: Post-emergence herbicidal action, ABUTH; conditions: 80 g/ha, Table D
How it was run: as §2

[13] = tested on: Pharbitis purpureum; experiment: Post-emergence herbicidal action, PHBPU; conditions: 80 g/ha, Table D
How it was run: as §2

[14] = tested on: Setaria viridis; experiment: Pre-emergence herbicidal action, SETVI; conditions: dosage 320 g/ha, scored visually after 3 weeks vs untreated controls
How it was run: as §1

[15] = tested on: Matricaria inodora; experiment: Pre-emergence herbicidal action, MATIN; conditions: dosage 320 g/ha, scored visually after 3 weeks vs untreated controls
How it was run: as §1

[16] = tested on: Amaranthus retroflexus; experiment: Post-emergence herbicidal action, AMARE; conditions: 80 g/ha, Table D
How it was run: as §2

[17] = tested on: Amaranthus retroflexus; experiment: Pre-emergence herbicidal action, AMARE; conditions: dosage 320 g/ha, scored visually after 3 weeks vs untreated controls
How it was run: as §1

[18] = tested on: Cyperus serotinus; experiment: Pre-emergence herbicidal action, CYPES; conditions: dosage 320 g/ha, scored visually after 3 weeks vs untreated controls
How it was run: as §1

| Compound | herbicidal activity VIOTR [1] | herbicidal activity AVEFA [2] | herbicidal activity ALOMY [3] | herbicidal activity VIOTR [4] | herbicidal activity ALOMY [5] | herbicidal activity SETVI [6] | Herbicidal activity STEME [7] | Herbicidal activity ECHCG [8] | herbicidal activity AVEFA [9] | Herbicidal activity STEME [10] | herbicidal activity ABUTH [11] | herbicidal activity ABUTH [12] | Herbicidal activity PHBPU [13] | herbicidal activity SETVI [14] | herbicidal activity MATIN [15] | herbicidal activity AMARE [16] | herbicidal activity AMARE [17] | herbicidal activity CYPES [18] |
| --- | --- | --- | --- | --- | --- | --- | --- | --- | --- | --- | --- | --- | --- | --- | --- | --- | --- | --- |
| CCn1nnnc1NC(=O)c1ccc(C(F)F)c(S(C)(=O)=O)c1C1CC1 [Example 2-27] | 100% | 100% | 100% | 100% | 90% | 100% | 100% | 100% | 100% | 100% | 100% | 100% | 90% | 100% | 100% | 100% | 100% | 100% |
| CSc1c(C(F)F)ccc(C(=O)Nc2ncnn2C)c1Br [Example 4-61] | 100% | 90% | 100% | 100% | 100% | 100% | 90% | 100% | 100% | 100% | 100% | 100% | 100% | 100% | 100% | 100% | 100% | 90% |
| CCn1nnnc1NC(=O)c1ccc(C(F)F)c(SC)c1Cl [Example 2-49] | 100% | 100% | 100% | 100% | 100% | 100% | 90% | 100% | 100% | 100% | 100% | 100% | 100% | 100% | 100% | 100% | 100% | 90% |
| CCS(=O)(=O)c1c(C(F)F)ccc(C(=O)Nc2ncnn2C)c1Cl [Example 4-54] | 100% | 80% | 90% | 100% | 90% | 100% | 100% | 100% | 100% | 100% | 100% | 90% | 100% | 90% | 100% | 90% | 100% | 80% |
| CCSc1c(C(F)F)ccc(C(=O)Nc2nnnn2C)c1Br [Example 1-64] | 100% | 100% | 100% | 100% | 90% | 90% | 100% | 90% | 100% | 100% | 100% | 100% | 100% | 100% | 100% | 100% | 100% | 100% |
| CC[S+]([O-])c1c(C(F)F)ccc(C(=O)Nc2nnnn2C)c1Br (stereo not drawn) [Example 1-65] | 100% | 100% | 100% | 100% | 100% | 100% | 100% | 100% | 100% | 100% | 100% | 100% | 100% | 100% | 100% | 100% | 100% | 90% |
| CCc1c(C(=O)Nc2nnc(C)o2)ccc(C(F)F)c1S(=O)(=O)CC [Example 7-16] | 100% | 100% | 100% | 100% | 90% | 100% | 100% | 90% | 90% | 100% | 100% | 100% | 90% | 100% | 100% | 100% | 100% | 100% |
| CCn1nnnc1NC(=O)c1ccc(C(F)F)c([S+]([O-])CC)c1F (stereo not drawn) [Example 2-41] | 100% | 100% | 100% | 100% | 80% | 100% | 100% | 100% | 90% | 100% | 100% | 100% | 90% | 100% | 100% | 90% | 100% | 90% |
